From ChEMBL document CHEMBL5728358, “JAK1 selective inhibitors” (2021)

Biological target: Tyrosine-protein kinase JAK1 (Homo sapiens, UniProt P23458)
Test: JAK enzyme was expressed as N-terminal GST fusion in insect cells and purified by glutathione-affinity and size-exclusion chromatographies. […] Phosphorylated and unphosphotylated peptides were separated and quantified by a Caliper LC3000 system (Caliper Life Sciences, MA) for calculating percent inhibition.
Assay type: organism-based

Sequence of Tyrosine-protein kinase JAK1 (P23458 whole entry, the tested form may be a part): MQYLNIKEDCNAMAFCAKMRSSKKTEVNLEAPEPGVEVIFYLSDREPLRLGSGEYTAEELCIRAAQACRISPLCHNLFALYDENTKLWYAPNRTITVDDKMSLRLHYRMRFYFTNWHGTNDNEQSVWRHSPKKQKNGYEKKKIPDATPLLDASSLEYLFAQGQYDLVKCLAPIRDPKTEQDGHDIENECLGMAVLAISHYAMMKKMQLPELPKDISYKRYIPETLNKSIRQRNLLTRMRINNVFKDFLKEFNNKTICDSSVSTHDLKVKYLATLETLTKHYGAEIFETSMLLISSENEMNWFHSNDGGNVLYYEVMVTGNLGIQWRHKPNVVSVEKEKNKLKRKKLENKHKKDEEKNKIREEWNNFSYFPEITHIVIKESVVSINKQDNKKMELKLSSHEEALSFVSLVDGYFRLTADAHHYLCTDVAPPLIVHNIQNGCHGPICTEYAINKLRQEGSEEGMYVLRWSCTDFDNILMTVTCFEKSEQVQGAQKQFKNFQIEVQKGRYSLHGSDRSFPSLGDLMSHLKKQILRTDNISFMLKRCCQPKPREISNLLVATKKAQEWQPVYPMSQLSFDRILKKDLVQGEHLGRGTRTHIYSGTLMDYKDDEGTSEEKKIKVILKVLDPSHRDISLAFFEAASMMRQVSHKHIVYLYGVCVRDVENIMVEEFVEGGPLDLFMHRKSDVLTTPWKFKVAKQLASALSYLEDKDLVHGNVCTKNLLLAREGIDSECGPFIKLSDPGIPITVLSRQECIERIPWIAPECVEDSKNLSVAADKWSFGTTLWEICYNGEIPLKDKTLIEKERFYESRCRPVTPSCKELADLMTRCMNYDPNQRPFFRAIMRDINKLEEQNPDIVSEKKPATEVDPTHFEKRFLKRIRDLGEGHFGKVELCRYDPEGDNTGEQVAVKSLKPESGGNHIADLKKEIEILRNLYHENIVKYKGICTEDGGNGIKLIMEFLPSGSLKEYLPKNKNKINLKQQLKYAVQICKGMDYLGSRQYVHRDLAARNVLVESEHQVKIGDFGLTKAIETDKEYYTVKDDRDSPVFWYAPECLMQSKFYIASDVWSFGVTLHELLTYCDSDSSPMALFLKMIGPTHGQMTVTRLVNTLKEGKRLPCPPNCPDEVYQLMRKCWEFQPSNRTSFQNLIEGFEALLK

Cc1cnc(Nc2cccc(S(C)(=O)=O)c2F)nc1-c1c[nH]c2c(NC(=O)[C@@H](C)N3C[C@H](C)N[C@@H](C)C3)cccc12
IC50: 3.4 nM
